Experimental data taken from ChEMBL document CHEMBL1201862, “PubChem BioAssay data set” (2004).
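Five concentrations, 48 hours, 96-well plates. The concentration for 50% growth inhibition is given as GI50.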 Calls of active or inactive are those of the source. No stated cut-off is given here; in the data, active = GI50 up to about 1.1 µM and inactive = higher.

Key:
Assay in all cases: DTP human tumour cell line panel, 48 h
HOP-62 = system: HOP-62
SN12C = system: SN12C
Malme-3M = system: Malme-3M
UO-31 = system: UO-31
SR = system: SR
SK-MEL-28 = system: SK-MEL-28
SK-MEL-5 = system: SK-MEL-5
NCI-H522 = system: NCI-H522
CCRF-CEM = system: CCRF-CEM
DU-145 = system: DU-145
OVCAR-4 = system: OVCAR-4
HOP-92 = system: HOP-92
LOX IMVI = system: LOX IMVI
K562 = system: K562
ACHN = system: ACHN
MDA-MB-231 = system: MDA-MB-231
RXF 393 = system: RXF 393
SNB-75 = system: SNB-75
Hs-578T = system: Hs-578T
SF-539 = system: SF-539

SMILES	GI50 (HOP-62)	GI50 (SN12C)	GI50 (Malme-3M)	GI50 (UO-31)	GI50 (SR)	GI50 (SK-MEL-28)	GI50 (SK-MEL-5)	GI50 (NCI-H522)	GI50 (CCRF-CEM)	GI50 (DU-145)	GI50 (OVCAR-4)	GI50 (HOP-92)	GI50 (LOX IMVI)	GI50 (K562)	GI50 (ACHN)	GI50 (MDA-MB-231)	GI50 (RXF 393)	GI50 (SNB-75)	GI50 (Hs-578T)	GI50 (SF-539)
OC(Cc1ccccc1)(Cc1ccccc1)c1ccccc1	19.7 µM (inactive)	17 µM (inactive)	13.1 µM (inactive)	17.5 µM (inactive)	25.1 µM (inactive)	21.9 µM (inactive)	18 µM (inactive)	14.7 µM (inactive)	20.7 µM (inactive)	17.7 µM (inactive)	16.9 µM (inactive)	16.9 µM (inactive)	18.3 µM (inactive)	26.8 µM (inactive)	18.4 µM (inactive)	19 µM (inactive)	15.3 µM (inactive)			
CCC/C=C/c1cc2c(cc1O)CC[C@@H]1[C@@H]2CC[C@]2(C)[C@@H](O)CC[C@@H]12			16.5 µM (inactive)	16.3 µM (inactive)	15.4 µM (inactive)	19.3 µM (inactive)	16.4 µM (inactive)	17.3 µM (inactive)	12 µM (inactive)		19 µM (inactive)	20.3 µM (inactive)	14.8 µM (inactive)	16.8 µM (inactive)	16.7 µM (inactive)	15.5 µM (inactive)	16.3 µM (inactive)	16.4 µM (inactive)	21.7 µM (inactive)	
O=C1N=C(c2ccccc2)OC1C(=O)c1ccccc1 (stereo not drawn)	> 100 µM (inactive)	> 100 µM (inactive)		> 100 µM (inactive)	> 100 µM (inactive)	> 100 µM (inactive)	> 100 µM (inactive)	> 100 µM (inactive)	> 100 µM (inactive)	> 100 µM (inactive)	> 100 µM (inactive)		> 100 µM (inactive)	> 100 µM (inactive)	> 100 µM (inactive)	> 100 µM (inactive)	> 100 µM (inactive)	> 100 µM (inactive)	> 100 µM (inactive)	
O=C(/C=C(\Nc1ccccc1O)c1ccccc1)C(=O)NC12CC3CC(CC(C3)C1)C2	> 10 µM (inactive)	> 10 µM (inactive)	> 10 µM (inactive)	> 10 µM (inactive)	5.33 µM (inactive)	> 10 µM (inactive)	7.03 µM (inactive)	> 10 µM (inactive)	4.33 µM (inactive)	> 10 µM (inactive)	> 10 µM (inactive)		9.14 µM (inactive)	> 10 µM (inactive)	> 10 µM (inactive)	> 10 µM (inactive)	> 10 µM (inactive)	> 10 µM (inactive)	> 10 µM (inactive)	8.93 µM (inactive)
S=C(N1CCN(c2ccccc2)CC1)N1CCN(c2ccccc2)CC1	> 100 µM (inactive)	> 100 µM (inactive)	> 100 µM (inactive)	> 100 µM (inactive)		86.9 µM (inactive)	95.1 µM (inactive)	> 100 µM (inactive)	24.4 µM (inactive)	> 100 µM (inactive)	> 100 µM (inactive)			> 100 µM (inactive)	> 100 µM (inactive)	> 100 µM (inactive)	> 100 µM (inactive)	27.2 µM (inactive)	> 100 µM (inactive)	
CC1(C)CC(=O)C(=CNC(=O)c2ccncc2)C(=O)C1	> 100 µM (inactive)	> 100 µM (inactive)		> 100 µM (inactive)		> 100 µM (inactive)	> 100 µM (inactive)	> 100 µM (inactive)	> 100 µM (inactive)	> 100 µM (inactive)	> 100 µM (inactive)	> 100 µM (inactive)	> 100 µM (inactive)		> 100 µM (inactive)	> 100 µM (inactive)	> 100 µM (inactive)	> 100 µM (inactive)	> 100 µM (inactive)	> 100 µM (inactive)
O=C(Cc1ccccc1)c1ccc2[nH]c(=O)oc2c1	90.6 µM (inactive)	> 100 µM (inactive)			38.3 µM (inactive)	28.6 µM (inactive)			> 100 µM (inactive)	62.2 µM (inactive)			52.1 µM (inactive)	31 µM (inactive)	41.4 µM (inactive)	36.1 µM (inactive)	39.6 µM (inactive)	0.126 µM (active)	1.03 µM (active)	32.2 µM (inactive)
Cc1nc(-c2cc3c(ccc4ccccc43)oc2=O)cc2c1c(=O)oc1ccc3ccccc3c12	> 100 µM (inactive)		> 100 µM (inactive)	> 100 µM (inactive)	> 100 µM (inactive)	> 100 µM (inactive)	> 100 µM (inactive)	> 100 µM (inactive)	> 100 µM (inactive)	> 100 µM (inactive)	> 100 µM (inactive)	> 100 µM (inactive)	> 100 µM (inactive)	> 100 µM (inactive)	> 100 µM (inactive)	> 100 µM (inactive)	> 100 µM (inactive)			> 100 µM (inactive)
